Data as given in US11098055B2, “Ester ACC inhibitors and uses thereof” (Gilead Apollo, LLC, priority 2015, dated 2021).
Converted amounts (≈) assume the structure as drawn. Read-outs that look alike come from different tables or passages of the source.

Legend:
[1] = biological target: hACC2 (Homo sapiens, UniProt O00763); experiment: In vitro ACC2 inhibition assay (ADP-Glo), human ACC2; type: biochemical
Summary of the method: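 ADP-Glo luminescent ADP detection with 5 nM ACC2, 20 μM ATP, 20 μM acetyl-CoA, 12 mM NaHCO3, 2 mM DTT, 5% DMSO; compound (30 μM-0.00051 μM, 11 points) preincubated 15 min, reaction 60 min at room temperature. Percent inhibition against DMSO and positive controls; IC50 by four-parameter nonlinear fit.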

[2] = test system: Botrtyis cinerea (Bc); experiment: Growth inhibition assay of fungal pathogens; type: cell-based; conditions: 48 h, read-out: Concentration at 90% Inhibition Bc
Summary of the method: (§1)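 Spores, or mycelial plugs for Rhizoctonia, in 17% V8 medium (¼ PDB for plugs) were exposed to compound at final 50, 10 and 2 ppm or 2, 0.4 and 0.08 ppm, with 2% DMSO. Growth was read by OD600 with blank subtraction plus visual rating; percent inhibition at 48 h is relative to 2% DMSO control.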

[3] = test system: Collectotrichum graminicola (Cg); experiment: Growth inhibition assay of fungal pathogens; type: cell-based; conditions: 48 h, read-out: Concentration at 90% Inhibition Cg
Summary of the method: as §1

[4] = test system: Diplodia maydis (Dm); experiment: Growth inhibition assay of fungal pathogens; type: cell-based; conditions: Stenocarpella maydis, 48 h, read-out: Concentration at 90% Inhibition Dm
Summary of the method: as §1

[5] = test system: Fusarium moniliforme (Fm); experiment: Growth inhibition assay of fungal pathogens; type: cell-based; conditions: Fusarium verticillioides, 48 h, read-out: Concentration at 90% Inhibition Fm
Summary of the method: as §1

[6] = test system: Fusarium virguliforme (Fv); experiment: Growth inhibition assay of fungal pathogens; type: cell-based; conditions: 48 h, read-out: Concentration at 90% Inhibition Fv
Summary of the method: as §1

[7] = test system: Phytophthora capsici (Pc); experiment: Growth inhibition assay of fungal pathogens; type: cell-based; conditions: 48 h, read-out: Concentration at 90% Inhibition Pc
Summary of the method: as §1

[8] = test system: Rhizoctonia solani (Rs); experiment: Growth inhibition assay of fungal pathogens; type: cell-based; conditions: 48 h, read-out: Concentration at 90% Inhibition Rs
Summary of the method: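 Percent growth inhibition is scored at 48 h, by OD600 (blank-subtracted) and visual rating against the 2% DMSO control. Compounds were tested at final 50, 10, 2 ppm or 2, 0.4, 0.08 ppm on pathogen spores diluted in 17% V8 medium; mycelial plugs in ¼ PDB were used for Rhizoctonia.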

[9] = test system: Septoria tritici (St); experiment: Growth inhibition assay of fungal pathogens; type: cell-based; conditions: Zymoseptoria tritici, 48 h, read-out: Concentration at 90% Inhibition St
Summary of the method: as §1

Sequence of hACC2 (O00763 whole entry): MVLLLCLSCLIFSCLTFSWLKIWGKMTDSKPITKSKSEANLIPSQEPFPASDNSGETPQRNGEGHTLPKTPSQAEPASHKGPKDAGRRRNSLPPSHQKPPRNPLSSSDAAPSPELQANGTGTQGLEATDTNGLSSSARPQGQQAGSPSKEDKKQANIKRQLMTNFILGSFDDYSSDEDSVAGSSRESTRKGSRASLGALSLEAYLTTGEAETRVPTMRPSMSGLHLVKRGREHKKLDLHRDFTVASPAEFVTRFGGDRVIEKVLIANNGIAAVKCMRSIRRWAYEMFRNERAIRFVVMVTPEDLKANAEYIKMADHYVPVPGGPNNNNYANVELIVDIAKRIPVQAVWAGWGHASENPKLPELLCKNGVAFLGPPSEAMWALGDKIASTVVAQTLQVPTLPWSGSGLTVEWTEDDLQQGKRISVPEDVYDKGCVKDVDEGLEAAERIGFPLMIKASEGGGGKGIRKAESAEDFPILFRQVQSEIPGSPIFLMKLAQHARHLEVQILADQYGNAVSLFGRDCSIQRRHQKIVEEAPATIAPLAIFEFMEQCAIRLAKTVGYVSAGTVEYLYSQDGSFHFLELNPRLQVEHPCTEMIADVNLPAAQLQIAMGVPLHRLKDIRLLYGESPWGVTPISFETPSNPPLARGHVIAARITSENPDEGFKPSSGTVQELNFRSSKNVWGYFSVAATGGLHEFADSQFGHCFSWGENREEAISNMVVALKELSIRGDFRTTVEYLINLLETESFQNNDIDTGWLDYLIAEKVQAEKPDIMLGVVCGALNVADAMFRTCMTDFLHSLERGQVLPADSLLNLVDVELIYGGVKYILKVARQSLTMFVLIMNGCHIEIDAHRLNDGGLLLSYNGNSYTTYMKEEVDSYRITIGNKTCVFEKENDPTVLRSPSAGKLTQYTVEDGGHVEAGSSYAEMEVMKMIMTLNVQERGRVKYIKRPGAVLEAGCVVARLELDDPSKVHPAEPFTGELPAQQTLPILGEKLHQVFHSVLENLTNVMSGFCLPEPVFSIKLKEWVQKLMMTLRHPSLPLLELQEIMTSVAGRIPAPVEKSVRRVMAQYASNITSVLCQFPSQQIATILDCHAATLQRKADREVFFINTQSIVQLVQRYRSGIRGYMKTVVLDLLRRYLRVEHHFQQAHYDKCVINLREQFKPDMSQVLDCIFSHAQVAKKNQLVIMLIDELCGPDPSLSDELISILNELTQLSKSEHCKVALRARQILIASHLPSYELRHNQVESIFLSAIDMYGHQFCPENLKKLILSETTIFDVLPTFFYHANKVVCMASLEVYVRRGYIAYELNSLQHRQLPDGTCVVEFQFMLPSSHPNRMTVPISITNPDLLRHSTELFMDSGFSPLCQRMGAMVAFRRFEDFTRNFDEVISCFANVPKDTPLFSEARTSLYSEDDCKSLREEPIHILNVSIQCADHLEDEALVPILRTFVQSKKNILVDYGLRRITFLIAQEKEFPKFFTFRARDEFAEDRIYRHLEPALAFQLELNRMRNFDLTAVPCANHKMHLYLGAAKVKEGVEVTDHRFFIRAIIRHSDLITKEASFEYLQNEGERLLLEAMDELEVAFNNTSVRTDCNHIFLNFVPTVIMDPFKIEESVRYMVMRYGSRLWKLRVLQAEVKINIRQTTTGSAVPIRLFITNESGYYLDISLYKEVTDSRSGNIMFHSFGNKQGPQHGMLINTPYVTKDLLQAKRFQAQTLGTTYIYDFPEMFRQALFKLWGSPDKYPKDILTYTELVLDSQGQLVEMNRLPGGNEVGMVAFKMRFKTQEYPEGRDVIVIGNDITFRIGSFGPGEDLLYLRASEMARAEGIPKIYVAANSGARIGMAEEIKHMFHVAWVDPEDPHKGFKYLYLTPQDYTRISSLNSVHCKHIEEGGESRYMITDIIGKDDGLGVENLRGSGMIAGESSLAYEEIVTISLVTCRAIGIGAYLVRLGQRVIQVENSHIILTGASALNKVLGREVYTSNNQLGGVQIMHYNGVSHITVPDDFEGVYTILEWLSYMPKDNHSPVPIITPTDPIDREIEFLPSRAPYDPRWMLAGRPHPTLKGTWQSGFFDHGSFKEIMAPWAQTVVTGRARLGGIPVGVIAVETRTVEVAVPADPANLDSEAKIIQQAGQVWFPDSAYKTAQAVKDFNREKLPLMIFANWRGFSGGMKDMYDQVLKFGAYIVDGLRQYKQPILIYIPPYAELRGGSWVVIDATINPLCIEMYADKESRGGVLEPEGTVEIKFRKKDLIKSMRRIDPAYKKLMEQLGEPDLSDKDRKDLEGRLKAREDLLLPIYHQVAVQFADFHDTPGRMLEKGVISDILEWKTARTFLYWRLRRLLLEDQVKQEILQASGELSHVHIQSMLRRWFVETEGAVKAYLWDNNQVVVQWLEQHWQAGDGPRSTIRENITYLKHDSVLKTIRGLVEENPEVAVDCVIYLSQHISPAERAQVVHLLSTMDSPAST

Structure (SMILES)	IC50 ([1]; Table 2b (additional results))	IC90 ([2]; Table 4b)	IC90 ([3]; Table 4b)	IC90 ([4]; Table 4b)	IC90 ([5]; Table 4b)	IC90 ([6]; Table 4b)	IC90 ([7]; Table 4b)	IC90 ([8]; Table 4b)	IC90 ([9]; Table 4b)	IC50 ([1]; Table 2a)	IC90 ([2]; Table 4a)	IC90 ([3]; Table 4a)	IC90 ([4]; Table 4a)	IC90 ([5]; Table 4a)	IC90 ([6]; Table 4a)	IC90 ([7]; Table 4a)	IC90 ([8]; Table 4a)	IC90 ([9]; Table 4a)
CCNC(=O)[C@@H](C)n1c(=O)c2c(C)c(C(=O)OCC)sc2n(C[C@H](OCCC#N)c2cc(F)ccc2OC)c1=O [Compound I-41, ethyl 1-((R)-2-(2-cyanoethoxy)-2-(5-fluoro-2-methoxy-phenyl)ethyl)-3-((R)-1-(ethylamino)-1-oxopropan-2-yl)-5-methyl-2,4-dioxo-1,2,3,4-tetrahydrothieno[2,3-d]pyrimidine-6-carboxylate]	10 to 40 nM	10 µg/mL (≈ 17.4 µM)	10 µg/mL (≈ 17.4 µM)	≥ 50 µg/mL	2 µg/mL (≈ 3.48 µM)	≥ 50 µg/mL	≥ 50 µg/mL	≥ 50 µg/mL	≥ 50 µg/mL									
CCOC(=O)c1sc2c(c1C)c(=O)n(C(C)(C)C(=O)NC(C)C)c(=O)n2CCc1cc(F)ccc1OC [Compound I-40, ethyl 1-(5-fluoro-2-methoxyphenethyl)-3-(1-(isopropylamino)-2-methyl-1-oxopropan-2-yl)-5-methyl-2,4-dioxo-1,2,3,4-tetrahydrothieno[2,3-d]pyrimidine-6-carboxylate]	10 to 40 nM	2 µg/mL (≈ 3.75 µM)	10 µg/mL (≈ 18.7 µM)	10 µg/mL (≈ 18.7 µM)	2 µg/mL (≈ 3.75 µM)	2 µg/mL (≈ 3.75 µM)	≥ 50 µg/mL	≥ 50 µg/mL	≥ 50 µg/mL									
CCOC(=O)c1sc2c(c1C)c(=O)n([C@H](C)C(=O)N(C)C(C)C)c(=O)n2C[C@H](OCCC#N)c1cc(F)ccc1OC [Compound I-27, ethyl 1-((R)-2-(2-cyanoethoxy)-2-(5-fluoro-2-methoxy-phenyl)ethyl)-3-((R)-1-(isopropyl(methyl)amino)-1-oxopropan-2-yl)-5-methyl-2,4-dioxo-1,2,3,4-tetrahydrothieno[2,3-d]pyrimidine-6-carboxylate]	0.3 to 3 nM	2 µg/mL (≈ 3.32 µM)	2 µg/mL (≈ 3.32 µM)	2 µg/mL (≈ 3.32 µM)	0.08 µg/mL (≈ 0.133 µM)	0.4 µg/mL (≈ 0.664 µM)	≥ 50 µg/mL	2 µg/mL (≈ 3.32 µM)	≥ 50 µg/mL									
CCOC(=O)c1sc2c(c1C)c(=O)n(C(C)(C)C(=O)NC(C)C)c(=O)n2C[C@H](OC1CCOCC1)c1ccccc1OC [Compound I-8, (R)-ethyl 3-(1-(isopropylamino)-2-methyl-1-oxopropan-2-yl)-1-(2-(2-methoxyphenyl)-2-((tetrahydro-2H-pyran-4-yl)oxy)ethyl)-5-methyl-2,4-dioxo-1,2,3,4-tetrahydrothieno[2,3-d]pyrimidine-6-carboxylate]	10 to 40 nM	0.4 µg/mL (≈ 0.65 µM)	2 µg/mL (≈ 3.25 µM)	2 µg/mL (≈ 3.25 µM)	0.08 µg/mL (≈ 0.13 µM)	2 µg/mL (≈ 3.25 µM)	≥ 50 µg/mL	10 µg/mL (≈ 16.2 µM)	≥ 50 µg/mL	10 to 40 nM	0.4 µg/mL (≈ 0.65 µM)	2 µg/mL (≈ 3.25 µM)	2 µg/mL (≈ 3.25 µM)	0.08 µg/mL (≈ 0.13 µM)	2 µg/mL (≈ 3.25 µM)	≥ 50 µg/mL	≥ 50 µg/mL	≥ 50 µg/mL
CCOC(=O)c1sc2c(c1C)c(=O)n(C(C)(C)C(=O)N1CCOCC1)c(=O)n2C[C@H](OC(C)C)c1ccccc1OC [Compound I-5, (R)-ethyl 1-(2-isopropoxy-2-(2-methoxyphenyl)ethyl)-5-methyl-3-(2-methyl-1-morpholino-1-oxopropan-2-yl)-2,4-dioxo-1,2,3,4-tetrahydrothieno[2,3-d]pyrimidine-6-carboxylate]	10 to 40 nM	0.4 µg/mL (≈ 0.665 µM)	10 µg/mL (≈ 16.6 µM)	2 µg/mL (≈ 3.32 µM)	0.4 µg/mL (≈ 0.665 µM)	10 µg/mL (≈ 16.6 µM)	≥ 50 µg/mL	≥ 50 µg/mL	≥ 50 µg/mL	10 to 40 nM	0.4 µg/mL (≈ 0.665 µM)	≥ 50 µg/mL	2 µg/mL (≈ 3.32 µM)	0.4 µg/mL (≈ 0.665 µM)	≥ 50 µg/mL	≥ 50 µg/mL	≥ 50 µg/mL	≥ 50 µg/mL
CCOC(=O)c1sc2c(c1C)c(=O)n(C(C)(C)C(=O)NC(C)C)c(=O)n2C[C@H](OCCO)c1cc(F)ccc1OC [Compound I-18, (R)-ethyl 1-(2-(5-fluoro-2-methoxyphenyl)-2-(2-hydroxy-ethoxy)ethyl)-3-(1-(isopropylamino)-2-methyl-1-oxopropan-2-yl)-5-methyl-2,4-dioxo-1,2,3,4-tetrahydrothieno[2,3-d]pyrimidine-6-carboxylate]		2 µg/mL (≈ 3.37 µM)	0.4 µg/mL (≈ 0.674 µM)	0.4 µg/mL (≈ 0.674 µM)	0.08 µg/mL (≈ 0.135 µM)	2 µg/mL (≈ 3.37 µM)	≥ 50 µg/mL	0.08 µg/mL (≈ 0.135 µM)	≥ 50 µg/mL	10 to 40 nM	2 µg/mL (≈ 3.37 µM)	0.4 µg/mL (≈ 0.674 µM)	0.4 µg/mL (≈ 0.674 µM)	0.08 µg/mL (≈ 0.135 µM)	2 µg/mL (≈ 3.37 µM)	≥ 50 µg/mL	0.08 µg/mL (≈ 0.135 µM)	≥ 50 µg/mL
CCOC(=O)c1sc2c(c1C)c(=O)n([C@@H](C)C(=O)NC(C)C)c(=O)n2C[C@H](OCCC#N)c1cc(F)ccc1OC [Compound I-20, ethyl 1-((R)-2-(2-cyanoethoxy)-2-(5-fluoro-2-methoxy-phenyl)ethyl)-3-((S)-1-(isopropylamino)-1-oxopropan-2-yl)-5-methyl-2,4-dioxo-1,2,3,4-tetrahydrothieno[2,3-d]pyrimidine-6-carboxylate]	3 to 10 nM	2 µg/mL (≈ 3.4 µM)	10 µg/mL (≈ 17 µM)	10 µg/mL (≈ 17 µM)	0.4 µg/mL (≈ 0.68 µM)	10 µg/mL (≈ 17 µM)	≥ 50 µg/mL	≥ 50 µg/mL	≥ 50 µg/mL									
CCOC(=O)c1sc2c(c1C)c(=O)n(C(C)(C)C(=O)NC(C)C)c(=O)n2C[C@H](OC[C@H](C)C#N)c1cc(F)ccc1OC [Compound I-34, ethyl 1-((R)-2-((R)-2-cyanopropoxy)-2-(5-fluoro-2-methoxyphenyl)ethyl)-3-(1-(isopropylamino)-2-methyl-1-oxopropan-2-yl)-5-methyl-2,4-dioxo-1,2,3,4-tetrahydrothieno[2,3-d]pyrimidine-6-carboxylate]	10 to 40 nM	0.4 µg/mL (≈ 0.649 µM)	0.08 µg/mL (≈ 0.13 µM)	0.4 µg/mL (≈ 0.649 µM)	0.08 µg/mL (≈ 0.13 µM)	0.4 µg/mL (≈ 0.649 µM)	10 µg/mL (≈ 16.2 µM)	0.08 µg/mL (≈ 0.13 µM)	2 µg/mL (≈ 3.24 µM)									
CCOC(=O)c1sc2c(c1C)c(=O)n(C(C)(C)C(N)=O)c(=O)n2C[C@H](OCCOC)c1cc(F)ccc1OC [Compound I-10, (R)-ethyl 3-(1-amino-2-methyl-1-oxopropan-2-yl)-1-(2-(5-fluoro-2-methoxyphenyl)-2-(2-methoxyethoxy)ethyl)-5-methyl-2,4-dioxo-1,2,3,4-tetrahydrothieno[2,3-d]pyrimidine-6-carboxylate]	≥ 40 nM	≥ 50 µg/mL	≥ 50 µg/mL	≥ 50 µg/mL	10 µg/mL (≈ 17.7 µM)	≥ 50 µg/mL	≥ 50 µg/mL	≥ 50 µg/mL	≥ 50 µg/mL	≥ 40 nM	≥ 50 µg/mL	≥ 50 µg/mL	≥ 50 µg/mL	≥ 50 µg/mL	≥ 50 µg/mL	≥ 50 µg/mL	≥ 50 µg/mL	≥ 50 µg/mL
CCOC(=O)c1sc2c(c1C)c(=O)n([C@@H](C)C(N)=O)c(=O)n2C[C@H](OCCC#N)c1cc(F)ccc1OC [Compound I-25, ethyl 3-((S)-1-amino-1-oxopropan-2-yl)-1-((R)-2-(2-cyanoethoxy)-2-(5-fluoro-2-methoxyphenyl)ethyl)-5-methyl-2,4-dioxo-1,2,3,4-tetrahydrothieno[2,3-d]pyrimidine-6-carboxylate]	3 to 10 nM	≥ 50 µg/mL	≥ 50 µg/mL	≥ 50 µg/mL	10 µg/mL (≈ 18.3 µM)	≥ 50 µg/mL	≥ 50 µg/mL	0.4 µg/mL (≈ 0.732 µM)	≥ 50 µg/mL									
CCOC(=O)c1sc2c(c1C)c(=O)n(C(C)(C)C(=O)N1CCCC1)c(=O)n2C[C@H](O)c1cc(F)ccc1OC [Compound I-22, (R)-ethyl 1-(2-(5-fluoro-2-methoxyphenyl)-2-hydroxyethyl)-5-methyl-3-(2-methyl-1-oxo-1-(pyrrolidin-1-yl)propan-2-yl)-2,4-dioxo-1,2,3,4-tetrahydrothieno[2,3-d]pyrimidine-6-carboxylate]	10 to 40 nM	2 µg/mL (≈ 3.56 µM)	10 µg/mL (≈ 17.8 µM)	≥ 50 µg/mL	2 µg/mL (≈ 3.56 µM)	2 µg/mL (≈ 3.56 µM)	≥ 50 µg/mL	0.08 µg/mL (≈ 0.142 µM)	≥ 50 µg/mL									
